Assay results published in article PMC10135378, “Synthesis of Novel N-Heterocyclic Carbene-Ruthenium (II) Complexes, “Precious” Tools with Antibacterial, Anticancer and Antioxidant Properties” (Antibiotics, 2023).
Values belong to the compound of their own block, whether it stands above or below them.

Experiments:
[1] = system: Staphylococcus aureus (ATCC 23235); assay: MIC/MBC broth dilution, S. aureus; format: cell-based; settings: control for strain sensitivity
Experimental: (§1) One Gram-negative (Escherichia coli (ATCC® 25922TM)) and two Gram-positive bacterial strains (Enterococcus faecalis (ATCC® 19433TM) and Staphylococcus aureus (ATCC® 23235TM)] were used for MIC and MBC values determination, according to CLSI guidelines. MIC represents the lowest concentration of compound inhibiting the visible microbial growth and expressed as μg/mL; MBC is the lowest concentration able to kill the bacteria. Both determinations were performed by the broth dilution method. Bacteria were grown overnight in LB medium (2%), then diluted to a density of […] colony forming units (CFUs) per mL, plated in sterile 96-well microplates, obtaining about 10^5 cells/ well. Increasing concentrations of the Ru-NHC complexes (1, 10, 25, 50, 70, 100 µg/mL) were used. After incubation at 37 °C for 18 h (overnight), bacterial growth was checked at a wavelength of 600 nm using a Multiskan spectrophotometer (model Multiskan Ex Microplate; Thermo Scientific, Nyon, Switzerland) and MIC or MBC values were determined, comparing cell density with a positive control (bacterial cells grown in LB medium were added with only the vehicle, DMSO). Each experiment was carried out five times, in triplicate. Ampicillin (Sigma Aldrich A9393) was used as the control for strain sensitivity.

[2] = system: Enterococcus faecalis (ATCC 19433); assay: MIC/MBC broth dilution, E. faecalis; format: cell-based; settings: control for strain sensitivity
Experimental: as §1

[3] = system: Escherichia coli (ATCC 25922); assay: MIC/MBC broth dilution, E. coli; format: cell-based; settings: control for strain sensitivity
Experimental: as §1

MCF-7 cells = assay: MTT assay, anticancer activity on MCF-7 cells; format: cell-based, human; settings: 72 h exposure, 0.1-100 µM
Experimental: (§2) The anticancer activity of all the synthesized Ru-NHC complexes (RANHC I-VI) was studied in two human breast cancer cell lines, namely the estrogen receptor positive (ER+) MCF-7 cells and the triple negative MDA-MB-231 cells (ER-, PR-, and HER-2/Neu not overexpressed), and neuroblastoma cells, i.e., SH-SY5Y. First, the cells were exposed for 72 h at different concentrations of the studied complexes (from 0.1 to 100 µM) and then their viability was checked by MTT assay.
(§3) The adopted cells (breast cancer MCF-7 and MDA-MB-231 and human mammary epithelial MCF-10A cells) were purchased from American Type Culture Collection (ATCC, Manassas, VA, USA) and cultured as indicated. The mouse embryonic fibroblast BALB/3T3 and neuroblastoma SH-SY5Y were also obtained from American Type Culture Collection (ATCC, Manassas, VA, USA) and cultured in DMEM high glucose supplemented with 100 U mL^−1 penicillin/streptomycin and 10% bovine calf serum (BCS) or 10% fetal bovine serum (FBS), respectively.
(§4) MTT assay (Sigma Aldrich (St. Louis, MO, USA)) was used for the in vitro anticancer activity evaluation, as previously reported. The Ru-NHC complexes were employed at different concentrations (0.1–1–10–25–50–100 μM) for 72 h. The IC50 values were calculated from the percent (%) of control using GraphPad Prism 9 (GraphPad Software, La Jolla, CA, USA).

BALB/3T3 cells = assay: MTT assay, non-tumoral BALB/3T3 fibroblasts; format: cell-based; settings: 72 h exposure, non-tumoral mouse embryonic fibroblasts
Excerpt: (§5) Additionally, we investigated the selectivity of all the synthesized Ru-NHC complexes on the cancer cells by studying their capability to interfere with the growth of two non-tumoral cells, namely the MCF-10A and BALB/3T3 cells.
as §3, §4

MCF-10A cells = assay: MTT assay, non-tumoral MCF-10A cells; format: cell-based, human; settings: 72 h exposure
Excerpt: as §5, §3, §4

SH-SY5Y cells = assay: MTT assay, anticancer activity on SH-SY5Y neuroblastoma cells; format: cell-based; settings: 72 h exposure, 0.1-100 µM
Experimental: as §2, §3, §4

MDA-MB-231 cells = assay: MTT assay, anticancer activity on MDA-MB-231 cells; format: cell-based, human; settings: MTT, 72 h exposure, 0.1-100 µM
Experimental: as §2, §3, §4

[4] = DPPH radical scavenging assay; settings: 30 min, room temperature, 517 nm
Experimental: Generally, the DPPH radical is able to accept hydrogen radicals or an electron, turning into a stable molecule. The interaction with Ru-NHC complexes induces the reduction of DPPH radical intensity measured at 517 nm, due to the conversion of the purple DPPH radical into its corresponding yellow hydrazine form.
The radical scavenging properties of Ru-NHC complexes on the 1,1-diphenyl-2-picryl-hydrazil (DPPH) radical were evaluated as described by Fazio et al., with minor corrections. Then, 20 μL of each Ru complex, properly dissolved in DMSO, were mixed with methanol DPPH 0.1 mM (180 μL) in a 48-well plate obtaining […] different concentrations (10, 50, 100, 200 and 300 µg/mL). Next, 20 μL of DMSO in 180 μL of DPPH methanol solution was diluted as the control. The mixture was vigorously shaken and incubated (room temperature, 30 min, in the dark). The scavenging activity was measured at 517 nm, using a microplate reader. DPPH radical scavenging was expressed as inhibition percentages (%IDPPH) for the Ru complexes compared to the initial concentration of DPPH (control) according to the formula: %IDPPH=A0−A/A0×100 where A0 is the absorbance at 517 nm of the control reaction and A is the absorbance at 517 nm in the presence of samples.
The obtained IDPPH percentages allowed the IC50 values determination, using GraphPad Prism 9 software (GraphPad Inc., San Diego, CA, USA). Trolox was employed as a positive control.

[5] = ABTS radical scavenging assay; settings: 5 min, room temperature, 730 nm
Excerpt: To further analyze the Ru-NHC complexes antiradical potential, we examined their capability to interfere with the ABTS radical cation, a well-known protonated radical with a characteristic maximal absorbance at 730 nm, which diminishes with the scavenging of the radical proton. The assay measures radical scavenging by the electron donation. The outcomes in terms of ABTS% scavenging activity are reported in Figure 7 and IC50 values of Ru-NHC complexes, together with the standard Trolox, on ABTS radical are summarized in Table 3 and Table S3.
The radical scavenging properties of the Ru-NHC complexes on a 2,2′-azino-bis(3-ethylbenzothiazoline-6-sulfonate) radical cation (ABTS^•+) were calculated as described by Fazio et al., with few adjustments. Briefly, 2 mM ABTS and 70 mM potassium persulfate water solutions were mixed and incubated to obtain ABTS^•+ radical stock solution (16 h, room temperature, in the dark). ABTS solution was diluted in ethanol to obtain an absorbance of 0.70 ± 0.02 at 730 nm, prior to use. Then, 2 μL of each Ru-NHC complex at different concentrations, properly dissolved in DMSO, were mixed with 198 μL of the ABTS^•+ solution in a 48-well plate obtaining the following concentrations: 0.1, 1, 10, 50, and 100 µg/mL. The solutions were vigorously shaken and incubated (5 min, room temperature, in the dark). The ABTS scavenging activity was determined at 730 nm, using a microplate reader. The control was prepared mixing 2 μL of DMSO with 198 μL of the ABTS^•+ solution. The ABTS radical scavenging was expressed as inhibition percentages (%IABTS) of each complex compared to the control, according to the formula: %IABTS=A0−A/A0×100 where A0 is the absorbance at 730 nm of the control reaction and A is the absorbance at 730 nm in the presence of samples.
IC50 values for the Ru complexes were calculated from the %IABTS using GraphPad Prism 9 software (GraphPad Inc., San Diego, CA, USA). Trolox was employed as the positive control.

Structure (SMILES): CC1(C)S[C@@H]2[C@H](NC(=O)[C@H](N)c3ccccc3)C(=O)N2[C@H]1C(=O)O [ampicillin, Ampicillin, reference compound]
strain sensitivity to ampicillin, S. aureus [1]: ampicillin-sensible | strain sensitivity to ampicillin, E. faecalis [2]: ampicillin-sensible | strain sensitivity to ampicillin, E. coli [3]: ampicillin-sensible

Structure (SMILES): N.N.[Cl][Pt][Cl] [Cisplatin, reference compound]
IC50 (MCF-7 cells): 26.2 ± 1.1 µM | IC50 (BALB/3T3 cells): 21.6 ± 1.2 µM | IC50 (MCF-10A cells): 80.24 ± 0.8 µM | IC50 (SH-SY5Y cells): 18.8 ± 0.9 µM | IC50 (MDA-MB-231 cells): 32.1 ± 1 µM

IC50 [4]: 99.91 ± 0.9 µM | IC50 [5]: 92.3 ± 0.9 µM
Structure (SMILES): Cc1c(C)c2c(c(C)c1O)CCC(C)(C(=O)O)O2 (stereo not shown) [Trolox, reference compound]
